# Reference: paper doi:10.1101/2021.04.08.439011v1 (biorxiv, 2021)
# Columns and labels:
# PRKCI = PRKCI (Homo sapiens, UniProt P41743); settings: 0.1 µM; binder
# ABL1(Y253F) = ABL1(Y253F) (Homo sapiens, UniProt P00519, Y253F); settings: phosphorylated; 0.1 µM; binder
# BRSK2 = BRSK2 (Homo sapiens, UniProt Q8IWQ3); settings: 0.1 µM; binder
# FGFR3(G697C) = FGFR3(G697C) (Homo sapiens, UniProt P22607, G697C); settings: 0.1 µM; binder
# RET = RET (Homo sapiens, UniProt P07949); settings: 0.1 µM; binder
# SRPK1 = SRPK1 (Homo sapiens, UniProt Q96SB4); settings: 0.1 µM; binder
# CAMK2B = CAMK2B (Homo sapiens, UniProt Q13554); settings: 0.1 µM; binder
# NEK10 = NEK10 (Homo sapiens, UniProt Q6ZWH5); settings: 0.1 µM; binder
# HCK = HCK (Homo sapiens, UniProt P08631); settings: 0.1 µM; binder
# IRAK1 = IRAK1 (Homo sapiens, UniProt P51617); settings: 0.1 µM; binder
# TTK = TTK (Homo sapiens, UniProt P33981); settings: 0.1 µM; binder
# KIT(D816H) = KIT(D816H) (Homo sapiens, UniProt P10721, D816H); settings: 0.1 µM; binder
# Chain of KIT(D816H) (P10721 whole entry D816H): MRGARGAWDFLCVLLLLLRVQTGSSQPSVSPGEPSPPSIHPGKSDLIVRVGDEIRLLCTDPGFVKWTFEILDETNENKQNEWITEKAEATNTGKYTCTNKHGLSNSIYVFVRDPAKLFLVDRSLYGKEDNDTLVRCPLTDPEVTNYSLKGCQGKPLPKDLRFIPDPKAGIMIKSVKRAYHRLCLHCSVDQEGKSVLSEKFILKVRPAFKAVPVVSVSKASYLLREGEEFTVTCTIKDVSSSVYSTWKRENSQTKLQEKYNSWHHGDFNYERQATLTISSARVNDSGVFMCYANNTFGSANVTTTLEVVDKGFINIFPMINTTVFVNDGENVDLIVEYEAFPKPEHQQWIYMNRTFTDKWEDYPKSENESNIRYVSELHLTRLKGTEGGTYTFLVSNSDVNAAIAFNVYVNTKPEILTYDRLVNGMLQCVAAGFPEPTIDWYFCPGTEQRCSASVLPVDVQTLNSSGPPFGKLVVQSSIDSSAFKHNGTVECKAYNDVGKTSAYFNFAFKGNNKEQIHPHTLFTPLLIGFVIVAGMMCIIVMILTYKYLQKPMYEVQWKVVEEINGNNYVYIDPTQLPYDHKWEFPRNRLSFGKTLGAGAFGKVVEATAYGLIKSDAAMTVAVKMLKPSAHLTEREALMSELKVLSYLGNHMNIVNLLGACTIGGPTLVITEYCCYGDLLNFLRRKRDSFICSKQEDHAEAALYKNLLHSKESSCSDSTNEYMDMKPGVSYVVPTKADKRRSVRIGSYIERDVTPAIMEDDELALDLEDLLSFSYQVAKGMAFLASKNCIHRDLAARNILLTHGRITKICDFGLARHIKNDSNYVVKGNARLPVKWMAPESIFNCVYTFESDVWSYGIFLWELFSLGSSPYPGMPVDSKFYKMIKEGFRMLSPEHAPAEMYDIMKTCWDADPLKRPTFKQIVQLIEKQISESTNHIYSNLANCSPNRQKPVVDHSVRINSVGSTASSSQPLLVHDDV
# DCAMKL3 = DCAMKL3 (Homo sapiens, UniProt Q9C098); settings: 0.1 µM; binder
# RET(V804M) = RET(V804M) (Homo sapiens, UniProt P07949, V804M); settings: 0.1 µM; binder
# EPHB2 = EPHB2 (Homo sapiens, UniProt P29323); settings: 0.1 µM; binder
# INSR = INSR (Homo sapiens, UniProt P06213); settings: 0.1 µM; binder
# CSNK1G3 = CSNK1G3 (Homo sapiens, UniProt Q9Y6M4); settings: 0.1 µM; binder
# Chain of CSNK1G3 (Q9Y6M4 whole entry): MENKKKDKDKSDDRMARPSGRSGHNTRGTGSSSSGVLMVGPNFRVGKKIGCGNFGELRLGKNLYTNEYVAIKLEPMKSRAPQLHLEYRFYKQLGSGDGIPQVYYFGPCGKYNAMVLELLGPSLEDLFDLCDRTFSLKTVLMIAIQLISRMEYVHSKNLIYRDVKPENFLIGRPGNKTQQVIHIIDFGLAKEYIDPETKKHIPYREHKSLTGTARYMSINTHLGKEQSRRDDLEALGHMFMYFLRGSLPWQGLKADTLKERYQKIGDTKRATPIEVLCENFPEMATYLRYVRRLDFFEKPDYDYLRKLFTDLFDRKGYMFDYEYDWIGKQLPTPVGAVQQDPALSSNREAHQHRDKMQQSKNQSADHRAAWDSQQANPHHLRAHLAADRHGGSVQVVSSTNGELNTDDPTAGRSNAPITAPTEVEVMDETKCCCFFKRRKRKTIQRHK
# PHKG1 = PHKG1 (Homo sapiens, UniProt Q16816); settings: 0.1 µM; binder
# WNK3 = WNK3 (Homo sapiens, UniProt Q9BYP7); settings: 0.1 µM; binder
# RIPK2 = RIPK2 (Homo sapiens, UniProt O43353); settings: 0.1 µM; binder
# Chain of RIPK2 (O43353 whole entry): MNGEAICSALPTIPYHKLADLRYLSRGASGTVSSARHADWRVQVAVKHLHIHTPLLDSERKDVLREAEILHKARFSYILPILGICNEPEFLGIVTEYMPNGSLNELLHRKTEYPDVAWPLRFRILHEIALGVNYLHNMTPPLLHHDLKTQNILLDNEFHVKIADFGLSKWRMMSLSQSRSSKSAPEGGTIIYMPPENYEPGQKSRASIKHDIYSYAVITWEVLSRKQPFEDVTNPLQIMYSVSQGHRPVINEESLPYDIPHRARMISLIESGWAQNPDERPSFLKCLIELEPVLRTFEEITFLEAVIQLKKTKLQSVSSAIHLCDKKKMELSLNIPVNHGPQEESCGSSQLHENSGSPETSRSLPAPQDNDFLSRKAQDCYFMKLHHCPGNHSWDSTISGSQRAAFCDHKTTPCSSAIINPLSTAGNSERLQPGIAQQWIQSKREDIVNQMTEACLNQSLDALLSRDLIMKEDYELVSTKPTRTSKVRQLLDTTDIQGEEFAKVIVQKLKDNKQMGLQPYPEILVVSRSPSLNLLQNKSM
# KIT(V559D,T670I) = KIT(V559D,T670I) (Homo sapiens, UniProt P10721, T670I/V559D); settings: 0.1 µM; binder
# Chain of KIT(V559D,T670I) (P10721 whole entry V559D/T670I): as the sequence (P10721 whole entry D816H) above, with V559D, T670I, H816D counted along it
# MARK4 = MARK4 (Homo sapiens, UniProt Q96L34); settings: 0.1 µM; binder
# CDKL3 = CDKL3 (Homo sapiens, UniProt Q8IVW4); settings: 0.1 µM; binder
# AKT3 = AKT3 (Homo sapiens, UniProt Q9Y243); settings: 0.1 µM; binder
# Chain of AKT3 (Q9Y243 whole entry): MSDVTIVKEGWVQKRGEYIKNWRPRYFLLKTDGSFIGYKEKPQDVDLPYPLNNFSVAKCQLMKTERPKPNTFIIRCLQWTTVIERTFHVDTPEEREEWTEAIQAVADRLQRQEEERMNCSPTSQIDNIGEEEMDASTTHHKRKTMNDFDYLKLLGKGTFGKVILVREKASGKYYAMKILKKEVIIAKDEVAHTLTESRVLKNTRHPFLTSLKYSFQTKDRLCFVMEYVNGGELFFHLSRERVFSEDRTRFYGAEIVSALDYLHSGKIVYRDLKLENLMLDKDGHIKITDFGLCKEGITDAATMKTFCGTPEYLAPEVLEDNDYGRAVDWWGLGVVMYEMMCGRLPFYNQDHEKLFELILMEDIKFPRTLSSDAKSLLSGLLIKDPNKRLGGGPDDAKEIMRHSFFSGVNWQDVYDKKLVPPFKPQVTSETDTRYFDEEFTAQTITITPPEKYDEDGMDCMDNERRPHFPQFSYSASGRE
# CSNK1A1L = CSNK1A1L (Homo sapiens, UniProt Q8N752); settings: 0.1 µM; binder
# ICK = ICK (Homo sapiens, UniProt Q9UPZ9); settings: 0.1 µM; binder
# JNK1 = JNK1 (Homo sapiens, UniProt P45983); settings: 0.1 µM; binder
# Chain of JNK1 (P45983 whole entry): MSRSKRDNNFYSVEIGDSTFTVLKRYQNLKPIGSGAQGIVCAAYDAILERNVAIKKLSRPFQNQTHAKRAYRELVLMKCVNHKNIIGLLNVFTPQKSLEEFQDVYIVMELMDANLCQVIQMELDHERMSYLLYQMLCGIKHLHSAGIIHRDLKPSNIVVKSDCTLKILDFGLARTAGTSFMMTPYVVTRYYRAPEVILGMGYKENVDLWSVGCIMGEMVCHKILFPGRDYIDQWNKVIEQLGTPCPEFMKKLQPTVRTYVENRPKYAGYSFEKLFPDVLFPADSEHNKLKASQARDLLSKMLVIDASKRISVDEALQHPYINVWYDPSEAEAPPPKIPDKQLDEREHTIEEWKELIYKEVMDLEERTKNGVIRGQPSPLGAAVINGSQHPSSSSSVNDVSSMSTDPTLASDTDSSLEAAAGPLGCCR
# PAK2 = PAK2 (Homo sapiens, UniProt Q13177); settings: 0.1 µM; binder
# Chain of PAK2 (Q13177 whole entry): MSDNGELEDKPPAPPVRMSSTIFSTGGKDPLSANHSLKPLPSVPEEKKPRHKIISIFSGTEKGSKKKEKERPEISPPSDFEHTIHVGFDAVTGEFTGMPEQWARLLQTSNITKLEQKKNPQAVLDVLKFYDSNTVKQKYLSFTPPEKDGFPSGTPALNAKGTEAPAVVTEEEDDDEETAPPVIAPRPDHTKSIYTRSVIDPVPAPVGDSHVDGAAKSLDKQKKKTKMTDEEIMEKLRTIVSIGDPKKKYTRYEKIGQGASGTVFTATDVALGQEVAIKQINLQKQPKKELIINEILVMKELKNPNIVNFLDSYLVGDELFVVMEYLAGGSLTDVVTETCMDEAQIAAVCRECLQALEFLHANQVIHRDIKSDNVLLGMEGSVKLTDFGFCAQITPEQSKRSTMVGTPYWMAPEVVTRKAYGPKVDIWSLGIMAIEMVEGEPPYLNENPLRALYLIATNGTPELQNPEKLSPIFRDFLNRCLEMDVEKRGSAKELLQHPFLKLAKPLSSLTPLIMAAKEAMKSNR
# MEK6 = MEK6 (Homo sapiens, UniProt P52564); settings: 0.1 µM; binder
# PCTK2 = PCTK2 (Homo sapiens, UniProt Q00537); settings: 0.1 µM; binder
# Chain of PCTK2 (Q00537 whole entry): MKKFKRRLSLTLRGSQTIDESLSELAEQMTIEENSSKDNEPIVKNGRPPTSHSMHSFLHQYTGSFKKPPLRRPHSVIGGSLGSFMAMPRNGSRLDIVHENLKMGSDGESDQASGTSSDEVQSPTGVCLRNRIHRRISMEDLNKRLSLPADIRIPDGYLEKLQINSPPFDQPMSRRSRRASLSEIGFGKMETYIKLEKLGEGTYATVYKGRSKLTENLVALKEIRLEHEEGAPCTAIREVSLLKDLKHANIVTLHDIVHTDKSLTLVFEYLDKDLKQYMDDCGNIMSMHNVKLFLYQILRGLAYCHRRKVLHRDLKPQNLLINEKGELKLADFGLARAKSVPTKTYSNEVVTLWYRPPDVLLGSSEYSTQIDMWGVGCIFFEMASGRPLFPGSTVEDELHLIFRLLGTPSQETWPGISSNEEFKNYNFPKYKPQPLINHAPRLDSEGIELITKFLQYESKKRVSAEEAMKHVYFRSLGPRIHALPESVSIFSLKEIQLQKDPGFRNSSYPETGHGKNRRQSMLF
# DSTYK = DSTYK (Homo sapiens, UniProt Q6XUX3); settings: 0.1 µM; binder
# Chain of FGFR3(G697C) (P22607 whole entry G697C): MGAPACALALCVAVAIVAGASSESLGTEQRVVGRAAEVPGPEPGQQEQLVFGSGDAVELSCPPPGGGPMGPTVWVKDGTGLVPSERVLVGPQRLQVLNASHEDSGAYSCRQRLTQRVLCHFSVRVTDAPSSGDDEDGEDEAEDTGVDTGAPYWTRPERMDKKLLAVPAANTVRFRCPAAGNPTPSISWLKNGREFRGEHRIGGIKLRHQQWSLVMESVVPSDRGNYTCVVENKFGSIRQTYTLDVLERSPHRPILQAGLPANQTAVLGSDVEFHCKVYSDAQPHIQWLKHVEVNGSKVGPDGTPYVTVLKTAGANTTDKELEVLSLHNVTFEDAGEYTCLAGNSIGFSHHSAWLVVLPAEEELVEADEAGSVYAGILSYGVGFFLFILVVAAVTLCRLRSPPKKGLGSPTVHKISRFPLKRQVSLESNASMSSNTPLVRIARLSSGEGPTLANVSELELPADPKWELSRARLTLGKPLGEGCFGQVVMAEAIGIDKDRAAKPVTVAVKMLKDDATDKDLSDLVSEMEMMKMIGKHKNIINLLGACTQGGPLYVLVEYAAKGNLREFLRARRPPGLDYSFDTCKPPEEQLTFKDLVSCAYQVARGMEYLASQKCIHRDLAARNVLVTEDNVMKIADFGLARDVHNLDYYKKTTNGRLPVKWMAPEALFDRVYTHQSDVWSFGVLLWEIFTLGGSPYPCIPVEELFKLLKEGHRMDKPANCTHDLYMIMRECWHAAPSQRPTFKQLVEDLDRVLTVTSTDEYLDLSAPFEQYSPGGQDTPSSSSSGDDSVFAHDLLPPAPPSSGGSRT
smiles,measurement,setting,value
"CNc1ncc2cc(-c3ccc(-c4cccc(C)n4)cc3Cl)c(=O)n(C[C@H]3OC[C@H](N)CO3)c2n1 [compound 6, G-5555]",Percent Control,PRKCI,97%
same,Percent Control,ABL1(Y253F),97%
same,Percent Control,BRSK2,100%
same,Percent Control,FGFR3(G697C),99%
same,Percent Control,RET,96%
same,Percent Control,SRPK1,94%
same,Percent Control,CAMK2B,100%
same,Percent Control,NEK10,91%
same,Percent Control,HCK,100%
same,Percent Control,IRAK1,97%
same,Percent Control,TTK,100%
same,Percent Control,KIT(D816H),100%
same,Percent Control,DCAMKL3,29%
same,Percent Control,RET(V804M),86%
same,Percent Control,EPHB2,100%
same,Percent Control,INSR,95%
same,Percent Control,CSNK1G3,100%
same,Percent Control,PHKG1,100%
same,Percent Control,WNK3,100%
same,Percent Control,RIPK2,100%
same,Percent Control,"KIT(V559D,T670I)",98%
same,Percent Control,MARK4,100%
same,Percent Control,CDKL3,89%
same,Percent Control,AKT3,95%
same,Percent Control,CSNK1A1L,100%
same,Percent Control,ICK,100%
same,Percent Control,JNK1,80%
same,Percent Control,PAK2,13%
same,Percent Control,MEK6,80%
same,Percent Control,PCTK2,100%
same,Percent Control,DSTYK,90%
